Earlier results in patent US20240398979A1, “Compositions and Methods for Treating Dopamine Disorders” (METAQOR LLC, priority 2020, published 2024).

B1: brain-derived neurotrophic factor (protein, UniProt P23560 19-247, looked up)
Neurotrophic factor BDNF …: APMKEANIRGQGGLAYPGVRTHGTLESVNGPKAGSRGLTSLADTFEHVIEELLDEDQKVRPNEENNKDADLYTSRVMLSSQVPLEPPLLFLLEEYKNYLDAANMSMRVRRHSDPARRGELSVCDSISEWVTAADKKTAVDMSGGTVTVLEKVPVSKGQLKQYFYETKCNPMGYTKEGCRGIDKRHWNSQCRTTQSYVRALTMDSKKRIGWRFIRIDTSCVCTLTIKRGR
notes: neurotrophin

tested on: methamphetamine use disorder; details: randomized controlled trials / meta-analyses

| Molecule | benefit in treatment of MUD |
| --- | --- |
| CC(NC(C)(C)C)C(=O)c1cccc(Cl)c1 (stereo not shown) [bupropion] | not effective |
| CN[C@H]1CC[C@@H](c2ccc(Cl)c(Cl)c2)c2ccccc21 [sertraline] | not effective |
| CNCC[C@@H](Oc1ccccc1C)c1ccccc1 [atomoxetine] | insufficient evidence of benefit for reducing MUD |
| CN1CCN2c3ncccc3Cc3ccccc3C2C1 (stereo not shown) [mirtazapine] | not effective |
| CC1(C)O[C@@H]2[C@@H](CO[C@@]3(COS(N)(=O)=O)OC(C)(C)O[C@@H]23)O1 [Topiramate] | insufficient evidence of benefit for reducing MUD |
| O=C1CC[C@@]2(O)[C@H]3Cc4ccc(O)c5c4[C@@]2(CCN3CC2CC2)[C@H]1O5 [naltrexone] | insufficient evidence of benefit for reducing MUD |
| NCC1(CC(=O)O)CCCCC1 [gabapentin] | insufficient evidence of benefit for reducing MUD |
| NCC(CC(=O)O)c1ccc(Cl)cc1 (stereo not shown) [baclofen] | insufficient evidence of benefit for reducing MUD |
| Cc1nccn1CC1CCc2c(c3ccccc3n2C)C1=O (stereo not shown) [ondansetron] | No effects |
| c1cnc2cc3c(cc2n1)[C@@H]1CNC[C@H]3C1 [varenicline] | insufficient evidence of benefit for reducing MUD |
| COC(=O)C(c1ccccc1)C1CCCCN1 (stereo not shown) [methylphenidate] | low-strength evidence that methylphenidate may reduce METH use |
| O=C1CCc2ccc(OCCCCN3CCN(c4cccc(Cl)c4Cl)CC3)cc2N1 [aripiprazole] | insufficient evidence of benefit for reducing MUD |

tested on: not given; details: not given

| Molecule | in vivo half-life [min] |
| --- | --- |
| B1 | < 5 |
